Measurements published in BindingDB's records for doi:10.1021/jm960069a (University of Camerino, 1996).

Target: Alpha-1B adrenergic receptor (Mesocricetus auratus) (UniProt P18841)
Assay: Binding affinity towards Alpha-1B adrenergic receptor hamster smooth muscle using [3H]prazosin as radioligand

Sequence of Alpha-1B adrenergic receptor (Mesocricetus auratus) (P18841 whole entry, looked up): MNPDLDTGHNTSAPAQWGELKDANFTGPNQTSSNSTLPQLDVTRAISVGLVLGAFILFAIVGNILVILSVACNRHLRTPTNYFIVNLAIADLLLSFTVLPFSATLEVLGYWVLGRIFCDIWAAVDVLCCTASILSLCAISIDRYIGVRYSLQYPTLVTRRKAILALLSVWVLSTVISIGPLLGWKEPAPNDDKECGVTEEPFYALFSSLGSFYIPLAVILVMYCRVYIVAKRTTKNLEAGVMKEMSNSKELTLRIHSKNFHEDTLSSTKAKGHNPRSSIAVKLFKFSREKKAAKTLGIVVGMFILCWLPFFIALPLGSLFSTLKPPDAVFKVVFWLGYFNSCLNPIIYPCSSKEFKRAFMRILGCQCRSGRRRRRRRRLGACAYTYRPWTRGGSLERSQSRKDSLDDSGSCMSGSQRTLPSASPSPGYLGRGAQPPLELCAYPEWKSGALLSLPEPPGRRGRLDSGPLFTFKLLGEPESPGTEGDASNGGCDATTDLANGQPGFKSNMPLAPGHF

Ki	SMILES
21.1 nM	COc1cccc(OC)c1OCCNC[C@@H]1Oc2ccccc2O[C@H]1c1ccc(C)cc1 [[2-(2,6-Dimethoxy-phenoxy)-ethyl]-((2S,3S)-3-p-tolyl-2,3-dihydro-benzo[1,4]dioxin-2-ylmethyl)-amine]
51.4 nM	COc1cccc(OC)c1OCCNCC1Oc2ccccc2OC1c1ccc(C)cc1 (configuration not stated) [[2-(2,6-Dimethoxy-phenoxy)-ethyl]-(3-p-tolyl-2,3-dihydro-benzo[1,4]dioxin-2-ylmethyl)-amine]
